Results reported in US8912120B2, “Herbicidal compositions comprising 4-amino-3-chloro-5-fluoro-6-(4-chloro-2-fluoro-3-methoxyphenyl) pyridine-2-carboxylic acid or a derivative thereof and synthetic auxin herbicides” (Dow AgroSciences, LLC., priority 2012, dated 2014).
Where “and” joins values, the source holds several entries; their conditions need not be identical. Identical values can stand only once.

Experiments:
CYPES = test: Example I: postemergence foliar-applied herbicidal mixtures, direct seeded rice, CYPES; type: in vivo, Cyperus esculentus (yellow nutsedge); settings: 4.38 gae/ha
Method: (§7) The soil matrix was contained in plastic pots with a volume of 1 quart and a surface area of 83.6 square centimeters (cm^2). […] The plants were grown for 8-22 days in a greenhouse with an approximate 14 h photoperiod which was maintained at about 29° C. during the day and 26° C. during the night. Nutrients (Peters Excel® 15-5-15 5-Ca 2-Mg and iron chelate) were applied in the irrigation solution as needed and water was added on a regular basis. Supplemental lighting was provided with overhead metal halide 1000-Watt lamps as necessary. The plants were employed for testing when they reached the first through fourth true leaf stage.
(§8) Treatments consisted of the acid or esters of 4-amino-3-chloro-5-fluoro-6-(4-chloro-2-fluoro-3-methoxy-phenyl)pyridine-2-carboxylic acid (Compound A), each formulated as an SC (suspension concentrate), and various herbicidal components alone and in combination. Forms of compound A were applied on an acid equivalent basis.
(§9) For treatments comprised of formulated compounds, measured amounts of compounds were placed individually in 25 mL glass vials and diluted in a volume of 1.25% (v/v) Agri-Dex® crop oil concentrated to obtain 12× stock solutions. […] Application solutions were prepared by adding an appropriate amount of each stock solution (e.g., 1 mL) and diluted to the appropriate final concentrations with the addition of 10 mL of an aqueous mixture of 1.25% (v/v) crop oil concentrate so that the final spray solutions contained 1.25+/−0.05% (v/v) crop oil concentrate.
(§10) All stock solutions and applications solutions were visually inspected for compound compatibility prior to application. Spray solutions were applied to the plant material with an overhead Mandel track sprayer equipped with a 8002E nozzles calibrated to deliver 187 L/ha over an application area of 0.503 m^2 at a spray height of 18 to 20 inches (46 to 50 cm) above average plant canopy height. Control plants were sprayed in the same manner with the solvent blank.
(§11) The treated plants and control plants were placed in a greenhouse as described above and watered by sub-irrigation to prevent wash-off of the test compounds. After approximately 3 weeks, the condition of the test plants as compared with that of the untreated plants was determined visually and scored on a scale of 0 to 100 percent where 0 corresponds to no injury or growth inhibition and 100 corresponds to complete kill.
(§12) Colby's equation was used to determine the herbicidal effects expected from the mixtures (Colby, S. R. 1967. Calculation of the synergistic and antagonistic response of herbicide combinations. Weeds 15:20-22).
(§13) The following equation was used to calculate the expected activity of mixtures containing two active ingredients, A and B: Expected=A+B−(A×B/100) […]

CYPDI = test: Example I: postemergence foliar-applied herbicidal mixtures, direct seeded rice, CYPDI; type: in vivo, Cyperus difformis (smallflower umbrella sedge)
Method: as §7, §8, §9, §10, §11, §12, §13

FIMMI = test: Example II: in-water applied herbicidal mixtures, transplanted paddy rice, FIMMI; type: in vivo, Fimbristylis miliacea (globe fringerush); settings: 22 DAA; 10.6 gae/ha
Method: The prepared mud was dispensed in 365 mL aliquots into 16-ounce (oz.) non-perforated plastic pots with a surface area of 86.59 square centimeters (cm^2) leaving a headspace of 3 centimeters (cm) in each pot Mud was allowed to dry overnight prior to planting or transplanting. Rice seeds were planted in Sun Gro MetroMix® 306 planting mixture, which typically has a pH of 6.0 to 6.8 and an organic matter content of about 30 percent, in plastic plug trays. Seedlings at the second or third leaf stage of growth were transplanted into 840 mL of mud contained in 32-oz. non-perforated plastic pots with a surface area of 86.59 cm^2 4 days prior to herbicide application. […] Nutrients were added as Osmocote® (19:6:12, N:P:K^+ minor nutrients) at 2 g per 16-oz. pot and 4 g per 32-oz. pot.
Applications were made by injecting with a pipetter appropriate amounts of the application solutions, individually and sequentially, into the aqueous layer of the paddy. Control plants were treated in the same manner with the solvent blank. Applications were made so that all treated plant material received the same concentrations of acetone and crop oil concentrate.

SCPJU = test: Example II: in-water applied herbicidal mixtures, transplanted paddy rice, SCPJU; type: in vivo, Schoenoplectus juncoides (Japanese bulrush); settings: for Visual Weed Control (%) - 21 DAA SCPJU Obs / Visual Weed Control (%) - 25 DAA SCPJU Obs: in-water application
In short: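 Transplanted paddy rice (2nd–3rd leaf seedlings, moved into mud 4 days before treatment) in flooded non-perforated pots; herbicides injected singly and in sequence into the paddy water layer. Solvent-blank controls; acetone and crop oil concentrate kept equal across all treatments.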

PANDI = test: Example III: postemergence foliar-applied herbicidal mixtures, row crop weeds, PANDI; type: in vivo, Panicum dichotomiflorum (fall panicum); settings: 16 DAA; 3.75 gae/ha
Method: (§1) The plants were grown for 7-31 days (d) in a greenhouse with an approximate 15 hour (h) photoperiod which was maintained at about 23-29° C. during the day and 22-28° C. during the night.

CYPIR = test: Example II: in-water applied herbicidal mixtures, transplanted paddy rice, CYPIR; type: in vivo, Cyperus iria L. (flatsedge; settings: 21 DAA
ISCRU = test: Example I: postemergence foliar-applied herbicidal mixtures, direct seeded rice, ISCRU; type: in vivo, Ischaemum rugosum (saramollagrass)
Method: as §7, §8, §9, §10, §11, §12
The following equation was used to calculate the expected activity of mixtures containing two active ingredients, A and B: Expected=A+B−(A×B/100)
A=observed efficacy of active ingredient A at the same concentration as used in the mixture.
B=observed efficacy of active ingredient B at the same concentration as used in the mixture.

ELEIN = test: Example III: postemergence foliar-applied herbicidal mixtures, weeds common to row crops such as corn and soybeans (greenhouse), ELEIN; type: in vivo, Eleusine indica (goosegrass)
Method: as §1

AMARE = test: Example IV: postemergence foliar-applied herbicidal mixtures, weed control in cereal crops in the greenhouse, AMARE; type: in vivo, Amaranthus retroflexus (redroot pigweed); settings: alone, 8.75 gai/ha, 20-22 days
In short: (§2)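 Greenhouse plants were grown 7–36 days in potting mix (pH 6.0–6.8) under ~14 h photoperiod at about 18 °C day/17 °C night. Postemergence foliar sprays (12 mL) contained the second cereal herbicide with experimental compound as two- and three-way mixtures.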

CIRAR [1] = test: Example IV: postemergence foliar-applied herbicidal mixtures, cereal crops, CIRAR; type: in vivo, Cirsium arvense (Canada thistle); settings: alone, 8.75 gai/ha, 20-22 days
Method: (§3) Seeds of the desired test plant species were planted in Sun Gro MetroMix 306 planting mixture, which typically has a pH of 6.0 to 6.8 and an organic matter content of about 30 percent, in plastic pots with a surface area of 103.2 square centimeters (cm^2). […] The plants were grown for 7-36 days in a greenhouse with an approximate 14 hour photoperiod which was maintained at about 18° C. during the day and 17° C. during the night.
(§4) Spray solutions of the second cereal herbicide and experimental compound mixtures were prepared by adding the stock solutions to the appropriate amount of dilution solution to form 12 mL spray solution with active ingredients in two- and three-way combinations.

POLCO = test: Example IV: postemergence foliar-applied herbicidal mixtures, cereal crops, POLCO; type: in vivo, Polygonum convolvulus (wild buckwheat); settings: 8.75 gai/ha
In short: as §2

STEME = test: Example IV: postemergence foliar-applied herbicidal mixtures, cereal crops, STEME; type: in vivo, Stellaria media (common chickweed); settings: alone, 8.75 gai/ha, 20-22 days
Method: as §3, §4

VIOTR = test: Example IV: postemergence foliar-applied herbicidal mixtures, cereal crops, VIOTR; type: in vivo, Viola tricolor (wild pansy); settings: 8.75 gai/ha
In short: as §2

CASOB = test: Example V: postemergence herbicidal activity of mixtures in forage crops (greenhouse), CASOB; type: in vivo, Cassia obtusifolia (sicklepod); settings: alone, foliar, approximately 21 days
Method: as §3, with “Seeds or root cuttings” for “Seeds”, “MetroMix®” for “MetroMix”, “126.6” for “103.2”, “14-60” for “7-36”, “approximately 28°” for “about 18°”, “24°” for “17°”
(§5) Spray solutions of the second herbicide or experimental compound mixtures were prepared by adding the stock solutions to the appropriate amount of dilution solution to form 12 mL spray solution with active ingredients in two-way combinations.

CENMA = test: Example V: postemergence herbicidal activity of mixtures in forage crops, CENMA; type: in vivo, Centaurea maculosa (spotted knapweed); settings: alone, foliar, approximately 21 days
In short: (§6)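 Plants grown from seed or root cuttings in MetroMix 306 (pH 6.0–6.8) for 14–60 days in greenhouse, ~14 h photoperiod, ~28/24 °C day/night. Foliar spray of two-way mixtures of the second herbicide or experimental compounds applied postemergence.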

CIRAR [2] = test: Example V: postemergence herbicidal activity of mixtures in forage crops, CIRAR; type: in vivo, Cirsium arvense (Canada thistle); settings: alone, foliar, approximately 21 days
Method: as §3, with “Seeds or root cuttings” for “Seeds”, “MetroMix®” for “MetroMix”, “126.6” for “103.2”, “14-60” for “7-36”, “approximately 28°” for “about 18°”, “24°” for “17°”
as §5

SIDSP = test: Example V: postemergence herbicidal activity of mixtures in forage crops, SIDSP; type: in vivo, Sida spinosa (prickly sida); settings: alone, foliar, approximately 21 days
Method: as §3, with “Seeds or root cuttings” for “Seeds”, “MetroMix®” for “MetroMix”, “126.6” for “103.2”, “14-60” for “7-36”, “approximately 28°” for “about 18°”, “24°” for “17°”
as §5

SINAR = test: Example V: postemergence herbicidal activity of mixtures in forage crops, SINAR; type: in vivo, Sinapis arvensis (wild mustard); settings: alone, foliar, approximately 21 days
In short: as §6

SOOSS = test: Example V: postemergence herbicidal activity of mixtures in forage crops, SOOSS; type: in vivo, Solidago L. spec. (goldenrod); settings: alone, foliar, approximately 21 days
Method: as §3, with “Seeds or root cuttings” for “Seeds”, “MetroMix®” for “MetroMix”, “126.6” for “103.2”, “14-60” for “7-36”, “approximately 28°” for “about 18°”, “24°” for “17°”
as §5

TRFRE = test: Example V: postemergence herbicidal activity of mixtures in forage crops, TRFRE; type: in vivo, Trifolium repens (white clover); settings: alone, foliar, approximately 21 days
Method: as §3, with “Seeds or root cuttings” for “Seeds”, “MetroMix®” for “MetroMix”, “126.6” for “103.2”, “14-60” for “7-36”, “approximately 28°” for “about 18°”, “24°” for “17°”
as §5

## COc1c(Cl)ccc(-c2nc(C(=O)O)c(Cl)c(N)c2F)c1F [Compound A Acid, 4-amino-3-chloro-6-(4-chloro-2-fluoro-3-methoxyphenyl)-5-fluoropyridine-2-carboxylic acid]
CYPES
  Visual Weed Control (%) - 21 DAA CYPES Obs: 18%
CYPDI; 4.38 gae/ha
  Visual Weed Control (%) - 21 DAA CYPDI Obs: 50%
CYPDI; 8.75 gae/ha
  Visual Weed Control (%) - 21 DAA CYPDI Obs: 85%
FIMMI
  Visual Weed Control (%) Obs: 40%
SCPJU; 8.75 gae/ha
  Visual Weed Control (%) - 21 DAA SCPJU Obs: 15%
  Visual Weed Control (%) - 25 DAA SCPJU Obs: 65%
SCPJU; 17.5 gae/ha
  Visual Weed Control (%) - 21 DAA SCPJU Obs: 80%
  Visual Weed Control (%) - 25 DAA SCPJU Obs: 80%
SCPJU; 22 DAA, 10.6 gae/ha
  Visual Weed Control (%) Obs: 60%
SCPJU; 25 DAA, 8.75 gae/ha
  Visual Weed Control (%) Obs: 65%
SCPJU; 25 DAA, 17.5 gae/ha
  Visual Weed Control (%) Obs: 80%
SCPJU; 25 DAA, 35 gae/ha
  Visual Weed Control (%) Obs: 95%
SCPJU; 35 gae/ha
  Visual Weed Control (%) - 25 DAA SCPJU Obs: 95%
PANDI
  Visual Weed Control (%) Obs: 60%
CYPIR; 8.75 gae/ha
  Visual Weed Control (%) Obs: 0%
CYPIR; 17.5 gae/ha
  Visual Weed Control (%) Obs: 0%
CYPIR; 35 gae/ha
  Visual Weed Control (%) Obs: 95%

## COc1c(Cl)ccc(-c2nc(C(=O)OCc3ccccc3)c(Cl)c(N)c2F)c1F [Compound A Benzyl Ester, benzyl ester of 4-amino-3-chloro-5-fluoro-6-(4-chloro-2-fluoro-3-methoxy-phenyl)pyridine-2-carboxylic acid]
ISCRU; 8 gae/ha
  Visual Weed Control (%) - 21 DAA ISCRU Obs: 20%
ISCRU; 16 gae/ha
  Visual Weed Control (%) - 21 DAA ISCRU Obs: 0%
ELEIN; 14 DAA, 3.75 gae/ha
  Visual Weed Control (%) Obs: 0%
ELEIN; 17 DAA, 7.5 gae/ha
  Visual Weed Control (%) Obs: 20%
AMARE
  AMARE Ob (observed value): 60%
CIRAR [1]
  CIRAR Ob (observed value): 70%
POLCO; after 20-22 days
  Weed Control Ob: 50%
POLCO; alone, foliar, 20-22 days
  POLCO Ob (observed value): 50%
STEME
  STEME Ob (observed value): 70%
VIOTR; after 20-22 days
  Weed Control Ob: 30%
VIOTR; alone, foliar, 20-22 days
  VIOTR Ob (observed value): 30%
CASOB; 1.1 gae/ha
  CASOB Obs (observed value): 28%
CASOB; 2.2 gae/ha
  CASOB Obs (observed value): 33%
CASOB; 4.4 gae/ha
  CASOB Obs (observed value): 38%
CENMA; 4.4 gae/ha
  CENMA Obs (observed value): 70%
CENMA; 8.8 gae/ha
  CENMA Obs (observed value): 85%
CENMA; 17.5 gae/ha
  CENMA Obs (observed value): 95%
CIRAR [2]; 2.2 gae/ha
  CIRAR Obs (observed value): 25%
CIRAR [2]; 4.4 gae/ha
  CIRAR Obs (observed value): 30% and 25%
CIRAR [2]; 8.8 gae/ha
  CIRAR Obs (observed value): 30%
CIRAR [2]; 17.5 gae/ha
  CIRAR Obs (observed value): 30%
SIDSP; 1.1 gae/ha
  SIDSP Obs (observed value): 72%
SIDSP; 2.2 gae/ha
  SIDSP Obs (observed value): 77%
SIDSP; 4.4 gae/ha
  SIDSP Obs (observed value): 85%
SINAR; 1.1 gae/ha
  SINAR Obs (observed value): 72%
SINAR; 2.2 gae/ha
  SINAR Obs (observed value): 98%
SINAR; 4.4 gae/ha
  SINAR Obs (observed value): 80% and 100%
SINAR; 8.8 gae/ha
  SINAR Obs (observed value): 100%
SINAR; 17.5 gae/ha
  SINAR Obs (observed value): 100%
SOOSS; 2.2 gae/ha
  SOOSS Obs (observed value): 15%
SOOSS; 17.5 gae/ha
  SOOSS Obs (observed value): 100%
TRFRE; 4.4 gae/ha
  TRFRE Obs (observed value): 0%
TRFRE; 8.8 gae/ha
  TRFRE Obs (observed value): 10%
TRFRE; 17.5 gae/ha
  TRFRE Obs (observed value): 30%
